Key:
GSPT1 = test: Western blot, degradation of substrate protein in hPBMCs; type: cell-based, Human
IKZF1 = biological target: T1, IKZF1 (Homo sapiens, UniProt Q13422+Q96SW2); test: as above; type: cell-based
T1 construct: effects of the compounds of the present disclosure on the expression of target proteins in cells; endogenous in cells; host or cells: human PBMCs (Milecell Biotechnologies)

CK1α = biological target: T2, CK1α (Homo sapiens, UniProt P48729+Q96SW2); test: as above; type: cell-based
T2 construct: effects of the compounds of the present disclosure on the expression of target proteins in cells; endogenous in cells; host or cells: human PBMCs (Milecell Biotechnologies)

WEE1 = biological target: T3, WEE1 (Homo sapiens, UniProt P30291+Q96SW2); test: as above; type: cell-based
T3 construct: effects of the compounds of the present disclosure on the expression of target proteins in cells; endogenous in cells; host or cells: human PBMCs (Milecell Biotechnologies)

IKZF2 = biological target: T4, IKZF2 (Homo sapiens, UniProt Q96SW2+Q9UKS7); test: as above; type: cell-based
T4 construct: effects of the compounds of the present disclosure on the expression of target proteins in cells; endogenous in cells; host or cells: human PBMCs (Milecell Biotechnologies)

IKZF3 = biological target: T5, IKZF3 (Homo sapiens, UniProt Q96SW2+Q9UKT9); test: as above; type: cell-based
T5 construct: effects of the compounds of the present disclosure on the expression of target proteins in cells; endogenous in cells; host or cells: human PBMCs (Milecell Biotechnologies)

[1] = biological target: T6, human Cereblon WT GST-tagged protein (Homo sapiens, UniProt Q96SW2); test: CRBN-binding affinity, HTRF (CEREBLON BINDING kit); settings: for inhibition at 0.5 µM: read-out: Inhibition Rate at 0.5 µM (%); for inhibition at 2 µM: read-out: Inhibition Rate at 2 µM (%); for IC50: CRBN binding, HTRF, 3 hours at room temperature, read-out: HTRF IC50
T6 construct: purchased CISBIO 64BDCRBNPEH

[2] = 24 hours treatment, compounds at 50 nM and 500 nM (concentration behind the class not stated)
[3] = Western blot, 24 hours of compound treatment, compounds tested at 50 nM and 500 nM (concentration for the table not stated)

T3 sequence (P30291 whole entry): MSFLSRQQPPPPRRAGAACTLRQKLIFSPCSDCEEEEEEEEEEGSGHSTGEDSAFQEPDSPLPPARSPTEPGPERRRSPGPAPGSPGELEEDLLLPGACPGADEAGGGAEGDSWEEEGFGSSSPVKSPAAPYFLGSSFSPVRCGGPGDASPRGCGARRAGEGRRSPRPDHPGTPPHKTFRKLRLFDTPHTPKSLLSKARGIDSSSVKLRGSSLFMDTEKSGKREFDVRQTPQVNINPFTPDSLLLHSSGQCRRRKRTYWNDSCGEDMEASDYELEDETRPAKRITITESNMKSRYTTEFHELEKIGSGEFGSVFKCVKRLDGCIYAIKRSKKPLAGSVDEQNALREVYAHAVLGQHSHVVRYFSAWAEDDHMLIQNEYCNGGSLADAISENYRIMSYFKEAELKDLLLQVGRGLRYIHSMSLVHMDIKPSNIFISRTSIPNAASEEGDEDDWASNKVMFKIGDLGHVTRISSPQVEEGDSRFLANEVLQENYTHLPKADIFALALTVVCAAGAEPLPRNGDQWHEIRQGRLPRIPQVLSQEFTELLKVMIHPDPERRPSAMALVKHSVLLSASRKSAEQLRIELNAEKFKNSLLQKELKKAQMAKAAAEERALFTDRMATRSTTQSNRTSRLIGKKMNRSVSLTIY
T3 sequence (Q96SW2 whole entry): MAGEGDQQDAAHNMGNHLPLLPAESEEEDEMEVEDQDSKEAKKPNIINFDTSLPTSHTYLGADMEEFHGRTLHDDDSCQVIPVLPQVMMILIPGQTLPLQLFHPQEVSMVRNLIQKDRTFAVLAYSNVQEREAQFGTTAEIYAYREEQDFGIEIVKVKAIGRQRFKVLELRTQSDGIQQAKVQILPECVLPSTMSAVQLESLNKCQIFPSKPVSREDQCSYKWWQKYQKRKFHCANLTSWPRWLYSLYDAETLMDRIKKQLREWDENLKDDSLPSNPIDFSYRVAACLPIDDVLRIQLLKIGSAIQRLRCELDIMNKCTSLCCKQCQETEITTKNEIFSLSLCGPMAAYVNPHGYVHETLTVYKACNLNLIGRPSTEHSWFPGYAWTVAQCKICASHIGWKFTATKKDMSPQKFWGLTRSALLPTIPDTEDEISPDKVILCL
T3 sequence (Q16531 whole entry partner): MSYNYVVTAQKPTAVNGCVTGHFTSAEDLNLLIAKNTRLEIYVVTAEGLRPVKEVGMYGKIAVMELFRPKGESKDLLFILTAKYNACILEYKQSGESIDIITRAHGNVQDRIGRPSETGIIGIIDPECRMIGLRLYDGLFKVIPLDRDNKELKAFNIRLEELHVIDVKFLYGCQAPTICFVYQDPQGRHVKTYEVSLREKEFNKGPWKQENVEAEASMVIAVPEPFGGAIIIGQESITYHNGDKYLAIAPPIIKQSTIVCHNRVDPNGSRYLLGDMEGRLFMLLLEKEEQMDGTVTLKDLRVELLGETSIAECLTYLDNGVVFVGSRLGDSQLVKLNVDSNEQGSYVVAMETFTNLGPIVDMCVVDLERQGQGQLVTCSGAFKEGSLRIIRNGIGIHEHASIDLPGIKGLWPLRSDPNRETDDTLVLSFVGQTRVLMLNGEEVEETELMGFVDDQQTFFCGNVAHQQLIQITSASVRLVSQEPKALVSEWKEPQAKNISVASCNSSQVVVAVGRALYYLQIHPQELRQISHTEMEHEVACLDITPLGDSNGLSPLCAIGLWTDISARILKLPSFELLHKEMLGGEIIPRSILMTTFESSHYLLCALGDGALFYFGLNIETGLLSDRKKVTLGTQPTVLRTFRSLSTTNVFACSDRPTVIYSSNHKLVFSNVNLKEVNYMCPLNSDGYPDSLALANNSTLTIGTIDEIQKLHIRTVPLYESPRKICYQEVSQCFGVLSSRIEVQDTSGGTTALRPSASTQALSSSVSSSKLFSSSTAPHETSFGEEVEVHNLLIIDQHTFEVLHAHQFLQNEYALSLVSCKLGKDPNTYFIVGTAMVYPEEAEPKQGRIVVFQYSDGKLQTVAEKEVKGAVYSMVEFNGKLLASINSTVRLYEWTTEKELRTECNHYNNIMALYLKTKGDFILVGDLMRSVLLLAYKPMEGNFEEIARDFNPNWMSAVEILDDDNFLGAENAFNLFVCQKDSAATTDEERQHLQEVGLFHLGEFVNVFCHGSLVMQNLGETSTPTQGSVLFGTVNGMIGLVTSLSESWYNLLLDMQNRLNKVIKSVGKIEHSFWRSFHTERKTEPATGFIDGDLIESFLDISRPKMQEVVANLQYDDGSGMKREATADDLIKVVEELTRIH
T1 sequence (Q13422 whole entry): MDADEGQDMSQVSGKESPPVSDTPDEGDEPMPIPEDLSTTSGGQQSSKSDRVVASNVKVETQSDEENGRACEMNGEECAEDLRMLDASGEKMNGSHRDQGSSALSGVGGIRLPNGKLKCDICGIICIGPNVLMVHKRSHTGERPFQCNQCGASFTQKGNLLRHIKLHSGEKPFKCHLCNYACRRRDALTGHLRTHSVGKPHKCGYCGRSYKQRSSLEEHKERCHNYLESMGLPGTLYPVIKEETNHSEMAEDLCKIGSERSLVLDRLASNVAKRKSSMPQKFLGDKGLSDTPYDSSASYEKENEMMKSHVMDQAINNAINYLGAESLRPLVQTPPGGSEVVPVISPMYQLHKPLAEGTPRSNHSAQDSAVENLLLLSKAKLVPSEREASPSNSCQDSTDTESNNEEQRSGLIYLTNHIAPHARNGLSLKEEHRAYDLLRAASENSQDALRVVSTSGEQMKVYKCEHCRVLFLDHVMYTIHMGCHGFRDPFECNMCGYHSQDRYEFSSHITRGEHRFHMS
T1 sequence (Q96SW2 whole entry): as the sequence (Q96SW2 whole entry) above
T1 sequence (Q16531 whole entry partner): as the sequence (Q16531 whole entry partner) above
T6 sequence (Q96SW2 whole entry): as the sequence (Q96SW2 whole entry) above
T5 sequence (Q9UKT9 whole entry): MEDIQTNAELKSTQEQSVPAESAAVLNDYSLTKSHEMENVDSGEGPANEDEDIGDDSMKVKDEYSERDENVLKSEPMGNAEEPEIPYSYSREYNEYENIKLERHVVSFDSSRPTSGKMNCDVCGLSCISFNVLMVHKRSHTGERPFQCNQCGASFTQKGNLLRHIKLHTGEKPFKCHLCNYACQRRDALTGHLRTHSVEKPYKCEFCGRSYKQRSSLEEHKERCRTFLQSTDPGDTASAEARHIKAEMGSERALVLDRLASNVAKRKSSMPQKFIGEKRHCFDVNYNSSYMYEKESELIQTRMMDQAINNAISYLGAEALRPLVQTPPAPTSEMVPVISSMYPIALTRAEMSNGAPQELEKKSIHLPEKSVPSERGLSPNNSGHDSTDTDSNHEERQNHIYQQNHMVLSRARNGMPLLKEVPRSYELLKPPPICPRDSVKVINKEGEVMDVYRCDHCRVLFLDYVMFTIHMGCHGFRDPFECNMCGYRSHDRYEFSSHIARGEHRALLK
T5 sequence (Q96SW2 whole entry): as the sequence (Q96SW2 whole entry) above
T5 sequence (Q16531 whole entry partner): as the sequence (Q16531 whole entry partner) above
T2 sequence (P48729 whole entry): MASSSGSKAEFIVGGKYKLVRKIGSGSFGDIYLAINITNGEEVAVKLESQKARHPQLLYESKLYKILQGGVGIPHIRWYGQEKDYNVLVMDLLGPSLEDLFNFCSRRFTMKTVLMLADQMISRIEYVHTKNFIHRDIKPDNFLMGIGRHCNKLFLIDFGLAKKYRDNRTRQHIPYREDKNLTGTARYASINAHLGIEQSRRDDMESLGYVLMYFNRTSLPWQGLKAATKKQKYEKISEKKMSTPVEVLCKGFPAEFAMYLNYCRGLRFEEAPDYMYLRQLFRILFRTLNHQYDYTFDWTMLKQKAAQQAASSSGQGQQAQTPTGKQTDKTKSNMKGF
T2 sequence (Q96SW2 whole entry): as the sequence (Q96SW2 whole entry) above
T2 sequence (Q16531 whole entry partner): as the sequence (Q16531 whole entry partner) above
T4 sequence (Q9UKS7 whole entry): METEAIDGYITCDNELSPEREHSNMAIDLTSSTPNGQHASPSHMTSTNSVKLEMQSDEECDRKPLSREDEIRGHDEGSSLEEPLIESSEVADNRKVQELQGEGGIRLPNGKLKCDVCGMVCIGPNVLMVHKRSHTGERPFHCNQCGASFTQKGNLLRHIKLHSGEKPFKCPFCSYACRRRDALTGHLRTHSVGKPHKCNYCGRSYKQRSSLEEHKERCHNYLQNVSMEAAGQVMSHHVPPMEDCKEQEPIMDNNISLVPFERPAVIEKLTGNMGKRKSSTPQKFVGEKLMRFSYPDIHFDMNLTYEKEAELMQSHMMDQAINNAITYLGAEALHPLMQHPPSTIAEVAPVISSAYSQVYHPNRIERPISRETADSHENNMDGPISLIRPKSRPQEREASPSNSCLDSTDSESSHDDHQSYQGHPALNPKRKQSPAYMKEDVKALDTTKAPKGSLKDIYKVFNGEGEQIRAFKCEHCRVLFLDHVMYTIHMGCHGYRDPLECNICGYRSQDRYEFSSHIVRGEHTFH
T4 sequence (Q96SW2 whole entry): as the sequence (Q96SW2 whole entry) above
T4 sequence (Q16531 whole entry partner): as the sequence (Q16531 whole entry partner) above

Compound | inhibition at 0.5 µM [1] [%] | inhibition at 2 µM [1] [%] | IC50 [1] [nM] | GSPT1 substrate protein remaining % (GSPT1; [2]) | IKZF 1 substrate protein remaining % (IKZF1; [2]) | CK1α substrate protein remaining % (CK1α; [2]) | Wee1 substrate protein remaining % (WEE1; [2]) | IKZF2 substrate protein remaining % (IKZF2; [2]) | IKZF3 substrate protein remaining % (IKZF3; [2]) | GSPT1 substrate protein remaining % (GSPT1; [3]) | IKZF 1 substrate protein remaining % (IKZF1; [3]) | CK1α substrate protein remaining % (CK1α; [3]) | Wee1 substrate protein remaining % (WEE1; [3]) | IKZF2 substrate protein remaining % (IKZF2; [3]) | IKZF3 substrate protein remaining % (IKZF3; [3])
O=C1CCC(N2Cc3cc(CN4CCC(n5c(=O)[nH]c6cc(F)ccc65)CC4)ccc3C2=S)C(=O)N1 (centres unmarked) [GT-09263, 3-(5-((4-(5-fluoro-2-oxo-2,3-dihydro-1H-benzo[d]imidazol-1-yl)piperidin-1-yl)methyl)-1-thioxoisoindolin-2-yl)piperidine-2,6-dione] | 60 to 80 | 80 to 100 |  | A (0% ≤ substrate protein remaining % ≤ 80%) | B (80%< substrate protein remaining %≤ 100%) | B (80%< substrate protein remaining %≤ 100%) | B (80%< substrate protein remaining %≤ 100%) | B (80%< substrate protein remaining %≤ 100%) | B (80%< substrate protein remaining %≤ 100%) |  |  |  |  |  | 
CC1(C)CCC(CN2C3CCC2CN(Cc2ccc4c(c2)CN(C2CCC(=O)NC2=O)C4=S)C3)=C(c2ccc(Cl)cc2)C1 (centres unmarked) [GT-08162, 3-(5-((8-((4'-chloro-5,5-dimethyl-3,4,5,6-tetrahydro-[1,1'-biphenyl]-2-yl)methyl)-3,8-diazabicyclo[3.2.1]octan-3-yl)methyl)-1-thioxoisoindolin-2-yl)piperidine-2,6-dione] | 30 to 40 | 60 to 80 |  | B (80%< substrate protein remaining %≤ 100%) | B (80%< substrate protein remaining %≤ 100%) | B (80%< substrate protein remaining %≤ 100%) | A (0% ≤ substrate protein remaining % ≤ 80%) | B (80%< substrate protein remaining %≤ 100%) | B (80%< substrate protein remaining %≤ 100%) |  |  |  |  |  | 
O=C1CCC(N2Cc3cc(CN4CCC(c5noc6cc(F)ccc56)CC4)ccc3C2=S)C(=O)N1 (centres unmarked) [GT-05089, 3-(5-((4-(6-fluorobenzo[d]isoxazol-3-yl)piperidin-1-yl)methyl)-1-thioxoisoindolin-2-yl)piperidine-2,6-dione] |  |  | < 100 |  |  |  |  |  |  | A (0% ≤ substrate protein remaining % ≤ 80%) | B (80%< substrate protein remaining %≤ 100%) | B (80%< substrate protein remaining %≤ 100%) | B (80%< substrate protein remaining %≤ 100%) | B (80%< substrate protein remaining %≤ 100%) | B (80%< substrate protein remaining %≤ 100%)
O=C1CCC(N2Cc3cc(CN4CCC(n5cnc6cc(F)ccc65)CC4)ccc3C2=S)C(=O)N1 (centres unmarked) [GT-09262, 3-(5-((4-(5-fluoro-1H-benzo[d]imidazol-1-yl)piperidin-1-yl)methyl)-1-thioxoisoindolin-2-yl)piperidine-2,6-dione] | 53 to 60 | 80 to 100 |  | A (0% ≤ substrate protein remaining % ≤ 80%) | B (80%< substrate protein remaining %≤ 100%) | B (80%< substrate protein remaining %≤ 100%) | B (80%< substrate protein remaining %≤ 100%) | B (80%< substrate protein remaining %≤ 100%) | B (80%< substrate protein remaining %≤ 100%) |  |  |  |  |  | 
CC1(C)CCC(CN2CCN(Cc3ccc4c(c3)CN(C3CCC(=O)NC3=O)C4=S)CC2)=C(c2ccc(Cl)cc2)C1 (centres unmarked) [GT-05151, 3-(5-((4-((4'-chloro-5,5-dimethyl-3,4,5,6-tetrahydro-[1,1'-biphenyl]-2-yl)methyl)piperazin-1-yl)methyl)-1-thioxoisoindolin-2-yl)piperidine-2,6-dione] |  |  | 500 to 1000 |  |  |  |  |  |  | A (0% ≤ substrate protein remaining % ≤ 80%) | A (0% ≤ substrate protein remaining % ≤ 80%) | B (80%< substrate protein remaining %≤ 100%) | A (0% ≤ substrate protein remaining % ≤ 80%) | A (0% ≤ substrate protein remaining % ≤ 80%) | A (0% ≤ substrate protein remaining % ≤ 80%)

Continued, in another order:

inhibition at 0.5 µM [1] [%] | inhibition at 2 µM [1] [%] | IC50 [1] [nM] | Compound | GSPT1 substrate protein remaining % (GSPT1; [2]) | IKZF 1 substrate protein remaining % (IKZF1; [2]) | CK1α substrate protein remaining % (CK1α; [2]) | Wee1 substrate protein remaining % (WEE1; [2]) | IKZF2 substrate protein remaining % (IKZF2; [2]) | IKZF3 substrate protein remaining % (IKZF3; [2]) | GSPT1 substrate protein remaining % (GSPT1; [3]) | IKZF 1 substrate protein remaining % (IKZF1; [3]) | CK1α substrate protein remaining % (CK1α; [3]) | Wee1 substrate protein remaining % (WEE1; [3]) | IKZF2 substrate protein remaining % (IKZF2; [3]) | IKZF3 substrate protein remaining % (IKZF3; [3])
80 to 100 | 80 to 100 |  | O=C1CCC(N2Cc3c(CN4CC(N5CCc6cc(F)ccc65)C4)cccc3C2=S)C(=O)N1 (centres unmarked) [GT-08635, 3-(4-((3-(5-fluoroindolin-1-yl)azetidin-1-yl)methyl)-1-thioxoisoindolin-2-yl)piperidine-2,6-dione] |  |  |  |  |  |  | B (80%< substrate protein remaining %≤ 100%) | B (80%< substrate protein remaining %≤ 100%) | B (80%< substrate protein remaining %≤ 100%) | A (0% ≤ substrate protein remaining % ≤ 80%) | B (80%< substrate protein remaining %≤ 100%) | B (80%< substrate protein remaining %≤ 100%)
53 to 60 | 80 to 100 |  | O=C1CCC(N2Cc3cc(CN4CCN(c5cc(F)cc(F)c5)CC4)ccc3C2=S)C(=O)N1 (centres unmarked) [GT-08628, 3-(5-((4-(3,5-difluorophenyl)piperazin-1-yl)methyl)-1-thioxoisoindolin-2-yl)piperidine-2,6-dione] |  |  |  |  |  |  | A (0% ≤ substrate protein remaining % ≤ 80%) | B (80%< substrate protein remaining %≤ 100%) | B (80%< substrate protein remaining %≤ 100%) | B (80%< substrate protein remaining %≤ 100%) | B (80%< substrate protein remaining %≤ 100%) | B (80%< substrate protein remaining %≤ 100%)
60 to 80 | 80 to 100 |  | O=C1CCC(N2Cc3c(CN4CCN(c5ccnc(Cl)c5F)CC4)cccc3C2=S)C(=O)N1 (centres unmarked) [GT-08732, 3-(4-((4-(2-chloro-3-fluoropyridin-4-yl)piperazin-1-yl)methyl)-1-thioxoisoindolin-2-yl)piperidine-2,6-dione] |  |  |  |  |  |  | B (80%< substrate protein remaining %≤ 100%) | B (80%< substrate protein remaining %≤ 100%) | B (80%< substrate protein remaining %≤ 100%) | A (0% ≤ substrate protein remaining % ≤ 80%) | B (80%< substrate protein remaining %≤ 100%) | B (80%< substrate protein remaining %≤ 100%)
40 to 53 | 80 to 100 |  | O=C1CCC(N2Cc3c(CN4CCN(c5ccc(F)cc5)CC4)cccc3C2=S)C(=O)N1 (centres unmarked) [GT-08264, 3-(4-((4-(4-fluorophenyl)piperazin-1-yl)methyl)-1-thioxoisoindolin-2-yl)piperidine-2,6-dione] |  |  |  |  |  |  | A (0% ≤ substrate protein remaining % ≤ 80%) | B (80%< substrate protein remaining %≤ 100%) | A (0% ≤ substrate protein remaining % ≤ 80%) | A (0% ≤ substrate protein remaining % ≤ 80%) | B (80%< substrate protein remaining %≤ 100%) | A (0% ≤ substrate protein remaining % ≤ 80%)
30 to 40 | 60 to 80 |  | O=C1CCC(N2Cc3cc(CN4CCN(c5ccc(Cl)cc5Cl)CC4)ccc3C2=S)C(=O)N1 (centres unmarked) [GT-08604, 3-(5-((4-(2,4-dichlorophenyl)piperazin-1-yl)methyl)-1-thioxoisoindolin-2-yl)piperidine-2,6-dione] |  |  |  |  |  |  | A (0% ≤ substrate protein remaining % ≤ 80%) | B (80%< substrate protein remaining %≤ 100%) | B (80%< substrate protein remaining %≤ 100%) | B (80%< substrate protein remaining %≤ 100%) | B (80%< substrate protein remaining %≤ 100%) | B (80%< substrate protein remaining %≤ 100%)
40 to 53 | 60 to 80 |  | O=C1CCC(N2Cc3c(CN4CCN(c5ccc(Cl)cn5)CC4)cccc3C2=S)C(=O)N1 (centres unmarked) [GT-08694, 3-(4-((4-(5-chloropyridin-2-yl)piperazin-1-yl)methyl)-1-thioxoisoindolin-2-yl)piperidine-2,6-dione] |  |  |  |  |  |  | A (0% ≤ substrate protein remaining % ≤ 80%) | B (80%< substrate protein remaining %≤ 100%) | B (80%< substrate protein remaining %≤ 100%) | A (0% ≤ substrate protein remaining % ≤ 80%) | B (80%< substrate protein remaining %≤ 100%) | B (80%< substrate protein remaining %≤ 100%)

Source: patent EP4745135A1 (Gluetacs Therapeutics (Shanghai) Co., Ltd., priority 2023, dated 2025)
